Measurements reported in ChEMBL document CHEMBL1201862, “PubChem BioAssay data set” (2004).
Several values for one entry are separate records, joined by “and”; a condition that tells them apart may be missing. Equal entries are not always repeated.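 Cells were grown in 96-well plates and exposed to each compound for 48 hours at five concentrations; endpoints were interpolated linearly between bracketing concentrations, or set to the highest concentration if not reached. GI50 marks 50% less growth.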 Activity calls are given as the source filed them. No stated cut-off is given here; in the data, active = GI50 up to about 1.1 µM and inactive = higher.

What was measured:
Experiment in all cases: inhibition of tumour cell growth, NCI panel, 48 h
[1] = tested on: 786-0
[2] = tested on: A498
[3] = tested on: A549
[4] = tested on: ACHN
[5] = tested on: CAKI-1
[6] = tested on: CCRF-CEM
[7] = tested on: COLO 205
[8] = tested on: DLD-1
[9] = tested on: DMS-114
[10] = tested on: DMS-273
[11] = tested on: EKVX
[12] = tested on: HCC 2998
[13] = tested on: HCT-116
[14] = tested on: HCT-15
[15] = tested on: HL-60
[16] = tested on: HOP-18
[17] = tested on: HOP-62
[18] = tested on: HOP-92
[19] = tested on: HT-29
[20] = tested on: IGROV-1
[21] = tested on: K562
[22] = tested on: KM-20L2
[23] = tested on: KM12
[24] = tested on: LOX IMVI
[25] = tested on: LXFL 529
[26] = tested on: M14
[27] = tested on: M19-MEL
[28] = tested on: MOLT-4
[29] = tested on: Malme-3M
[30] = tested on: NCI-H226
[31] = tested on: NCI-H23
[32] = tested on: NCI-H460
[33] = tested on: NCI-H522
[34] = tested on: OVCAR-3
[35] = tested on: OVCAR-4
[36] = tested on: OVCAR-5
[37] = tested on: OVCAR-8
[38] = tested on: RPMI-8226
[39] = tested on: RXF 393
[40] = tested on: SF-268
[41] = tested on: SF-295
[42] = tested on: SF-539
[43] = tested on: SK-MEL-28
[44] = tested on: SK-MEL-2
[45] = tested on: SK-MEL-5
[46] = tested on: SK-OV-3
[47] = tested on: SN12C
[48] = tested on: SNB-19
[49] = tested on: SNB-75
[50] = tested on: SNB-78
[51] = tested on: SW-620
[52] = tested on: TK-10
[53] = tested on: U-251
[54] = tested on: UACC-257
[55] = tested on: UACC-62
[56] = tested on: UO-31
[57] = tested on: XF498
[58] = tested on: SR
[59] = tested on: BT-549
[60] = tested on: DU-145
[61] = tested on: Hs-578T
[62] = tested on: MCF7
[63] = tested on: MDA-MB-231
[64] = tested on: MDA-MB-435
[65] = tested on: MDA-N
[66] = tested on: NCI/ADR-RES
[67] = tested on: PC-3
[68] = tested on: T47D

## Cn1c(=O)nc2n(-c3ccc(Cl)c(C(F)(F)F)c3)c3ccccc3nc-2c1=O
[1]
  GI50: 57 µM (inactive)
[2]
  GI50: > 79.3 µM (inactive)
[3]
  GI50: 25.8 µM (inactive)
[4]
  GI50: 27.7 µM (inactive)
[5]
  GI50: 51.4 µM (inactive)
[6]
  GI50: 30.8 µM (inactive)
[7]
  GI50: 17.7 µM (inactive)
[8]
  GI50: 20.1 µM (inactive)
[9]
  GI50: 16.7 µM (inactive)
[10]
  GI50: 32.1 µM (inactive)
[11]
  GI50: 35.1 µM (inactive)
[12]
  GI50: 25.6 µM (inactive)
[13]
  GI50: 27.2 µM (inactive)
[14]
  GI50: 31.4 µM
[15]
  GI50: 19.3 µM (inactive)
[16]
  GI50: > 100 µM (inactive)
[17]
  GI50: 57.9 µM (inactive)
[18]
  GI50: 40.8 µM (inactive)
[19]
  GI50: 24.3 µM (inactive)
[20]
  GI50: 84.1 µM (inactive)
[21]
  GI50: 35.5 µM (inactive)
[22]
  GI50: 25.1 µM (inactive)
[23]
  GI50: 32.9 µM (inactive)
[24]
  GI50: 35 µM (inactive)
[25]
  GI50: 76.9 µM (inactive)
[26]
  GI50: 26.1 µM (inactive)
[27]
  GI50: 13.4 µM (inactive)
[28]
  GI50: 36.7 µM (inactive)
[29]
  GI50: 15 µM (inactive)
[30]
  GI50: > 53.7 µM (inactive)
[31]
  GI50: 29.6 µM (inactive)
[32]
  GI50: 30.2 µM (inactive)
[33]
  GI50: 25.1 µM (inactive)
[34]
  GI50: 14.7 µM (inactive)
[35]
  GI50: 22.2 µM (inactive)
[36]
  GI50: 74.3 µM (inactive)
[37]
  GI50: 24.9 µM (inactive)
[38]
  GI50: 33.2 µM (inactive)
[39]
  GI50: 55.7 µM (inactive)
[40]
  GI50: 35.6 µM (inactive)
[41]
  GI50: 44.2 µM (inactive)
[42]
  GI50: 29 µM (inactive)
[43]
  GI50: 65 µM (inactive)
[44]
  GI50: 34.7 µM (inactive)
[45]
  GI50: 13.5 µM (inactive)
[46]
  GI50: > 100 µM (inactive)
[47]
  GI50: 30.9 µM (inactive)
[48]
  GI50: 21.9 µM (inactive)
[49]
  GI50: 94 µM (inactive)
[50]
  GI50: 53.6 µM (inactive)
[51]
  GI50: 22.9 µM (inactive)
[52]
  GI50: > 79.6 µM (inactive)
[53]
  GI50: 40.6 µM (inactive)
[54]
  GI50: 17.1 µM (inactive)
[55]
  GI50: 16.6 µM (inactive)
[56]
  GI50: > 77.4 µM (inactive)
[57]
  GI50: 37.2 µM (inactive)

## N#C/C(=C/Sc1ccccc1)C(=O)O
[1]
  GI50: 22.6 µM (inactive)
[3]
  GI50: 17.4 µM (inactive)
[4]
  GI50: 27.6 µM (inactive)
[5]
  GI50: 27.3 µM (inactive)
[6]
  GI50: 9.25 µM (inactive)
[7]
  GI50: 20.9 µM (inactive)
[8]
  GI50: 36 µM (inactive)
[9]
  GI50: 15.1 µM (inactive)
[10]
  GI50: 22.2 µM (inactive)
[11]
  GI50: 40.7 µM (inactive)
[13]
  GI50: 17.4 µM (inactive)
[14]
  GI50: 21.9 µM
[15]
  GI50: 34.4 µM (inactive)
[16]
  GI50: > 100 µM (inactive)
[17]
  GI50: 43.9 µM (inactive)
[18]
  GI50: 57.7 µM (inactive)
[19]
  GI50: 24.7 µM (inactive)
[20]
  GI50: 17.9 µM (inactive)
[21]
  GI50: 43.1 µM (inactive)
[22]
  GI50: 30.1 µM (inactive)
[23]
  GI50: 19.1 µM (inactive)
[24]
  GI50: 10.6 µM (inactive)
[25]
  GI50: 21.2 µM (inactive)
[26]
  GI50: 22 µM (inactive)
[27]
  GI50: 23.3 µM (inactive)
[28]
  GI50: 14.9 µM (inactive)
[30]
  GI50: 23.3 µM (inactive)
[31]
  GI50: 45.1 µM (inactive)
[32]
  GI50: 25.7 µM (inactive)
[33]
  GI50: 10.9 µM (inactive)
[34]
  GI50: 27.1 µM (inactive)
[35]
  GI50: 40.7 µM (inactive)
[36]
  GI50: 29.6 µM (inactive)
[37]
  GI50: 17 µM (inactive)
[38]
  GI50: 24.5 µM (inactive)
[39]
  GI50: 14.3 µM (inactive)
[40]
  GI50: 8.59 µM (inactive)
[41]
  GI50: 37.3 µM (inactive)
[42]
  GI50: 18.2 µM (inactive)
[43]
  GI50: 24.5 µM (inactive)
[44]
  GI50: 24.7 µM (inactive)
[45]
  GI50: 29.6 µM (inactive)
[46]
  GI50: 59.4 µM (inactive)
[47]
  GI50: 20 µM (inactive)
[48]
  GI50: 56.2 µM (inactive)
[49]
  GI50: 19.2 µM (inactive)
[50]
  GI50: 18 µM (inactive)
[58]
  GI50: > 100 µM (inactive)
[51]
  GI50: 41.2 µM (inactive)
[52]
  GI50: 38.7 µM (inactive)
[53]
  GI50: 13.5 µM (inactive)
[54]
  GI50: 34.4 µM (inactive)
[55]
  GI50: 26 µM (inactive)
[56]
  GI50: 12.6 µM (inactive)
[57]
  GI50: 41.8 µM (inactive)

## CN(C)CCNC(=O)c1cccc2cc([N+](=O)[O-])ccc12
[59]
  GI50: 3.56 µM (inactive)
[5]
  GI50: 0.519 µM (active)
[8]
  GI50: 0.217 µM (active)
[9]
  GI50: 0.217 µM (active)
[10]
  GI50: 0.123 µM (active)
[60]
  GI50: 2.86 µM (inactive)
[16]
  GI50: 0.697 µM (active)
[18]
  GI50: 0.249 µM (active)
[61]
  GI50: 1.46 µM (inactive)
[22]
  GI50: 0.111 µM (active)
[25]
  GI50: 0.271 µM (active)
[27]
  GI50: 0.279 µM (active)
[62]
  GI50: 0.608 µM (active)
[63]
  GI50: 1.34 µM (inactive)
[64]
  GI50: 2.23 µM (inactive)
[65]
  GI50: 1.98 µM (inactive)
[33]
  GI50: 0.685 µM (active)
[66]
  GI50: 1.39 µM (inactive)
[67]
  GI50: 0.76 µM (active)
[38]
  GI50: 183 nM (active) and 262 nM (active)
[39]
  GI50: 0.0649 µM (active)
[50]
  GI50: 0.22 µM (active)
[68]
  GI50: 2.79 µM (inactive)
[54]
  GI50: 0.243 µM (active)
[57]
  GI50: 0.252 µM (active)
